Assay results published in ChEMBL document CHEMBL1127988, “Differential binding and dopamine uptake activity of cocaine analogues modified at nitrogen” (Bioorg Med Chem Lett, 1994).

What was measured:
[1] = biological target: Sodium-dependent dopamine transporter (Rattus norvegicus) (UniProt P23977); experiment: Maximum percent inhibition of [3H]mazindol binding in rat corpus striatum P2 synaptosome at 1000 uM; format: tissue-based
Rattus norvegicus [2] = species: Rattus norvegicus; experiment: Maximum percent inhibition of dopamine uptake in rat corpus striatum P2 synaptosome at 1000 uM; format: functional
Rattus norvegicus [3] = species: Rattus norvegicus; experiment: Inhibitory activity towards [3H]dopamine uptake in rat corpus striatum P2 synaptosomes; format: functional
[4] = biological target: Sodium-dependent dopamine transporter (Rattus norvegicus, UniProt P23977); experiment: Binding affinity to inhibit [3H]mazindol binding in rat corpus striatum P2 synaptosomes; format: subcellular
[5] = biological target: Sodium-dependent dopamine transporter (Rattus norvegicus) (UniProt P23977); conditions: Corpus striatum; 1111 uM
Description: Maximum percent inhibition of [3H]mazindol binding in rat corpus striatum P2 synaptosome at 1111 uM

Sodium-dependent dopamine transporter, sequence (P23977 whole entry): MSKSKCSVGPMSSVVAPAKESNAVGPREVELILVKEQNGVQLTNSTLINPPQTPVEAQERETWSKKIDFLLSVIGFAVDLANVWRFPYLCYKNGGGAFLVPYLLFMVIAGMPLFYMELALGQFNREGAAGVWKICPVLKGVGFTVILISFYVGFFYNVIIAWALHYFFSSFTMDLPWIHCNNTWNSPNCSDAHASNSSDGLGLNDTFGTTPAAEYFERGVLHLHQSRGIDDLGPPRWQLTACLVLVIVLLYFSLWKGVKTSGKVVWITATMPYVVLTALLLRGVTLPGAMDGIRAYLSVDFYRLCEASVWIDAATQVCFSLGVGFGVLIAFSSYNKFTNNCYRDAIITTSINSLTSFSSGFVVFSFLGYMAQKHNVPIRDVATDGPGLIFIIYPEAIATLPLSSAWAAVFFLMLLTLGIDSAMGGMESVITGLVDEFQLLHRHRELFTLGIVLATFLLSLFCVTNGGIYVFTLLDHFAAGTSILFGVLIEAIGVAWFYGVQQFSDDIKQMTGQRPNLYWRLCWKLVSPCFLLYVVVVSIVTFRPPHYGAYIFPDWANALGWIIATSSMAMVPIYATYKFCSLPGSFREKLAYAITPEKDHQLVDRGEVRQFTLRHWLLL
Sodium-dependent dopamine transporter (Rattus norvegicus), sequence (P23977 whole entry): as above

SMILES | inhibition [1] | inhibition (Rattus norvegicus [2]) | Ki (Rattus norvegicus [3]) | Ki [4] | inhibition [5]
COC(=O)C1C(OC(=O)c2ccccc2)CC2CCC1N2NC(C)=O (centres undefined) | 42% | 41% | > 1000 µM | > 1000 µM | –
O=C(OC1CC2CCC3C1C(=O)NN23)c1ccccc1 (centres undefined) | – | – | 115 µM | 44.9 µM | 83%
COC(=O)C1C(OC(=O)c2ccccc2)CC2CCC1N2N=O (centres undefined) | 82% | 77% | 232 µM | 99.5 µM | –
COC(=O)C1C(OC(=O)c2ccccc2)CC2CCC1N2CC(=O)O (centres undefined) | – | – | 2.1 µM | 0.38 µM | –
COC(=O)C1C(OC(=O)c2ccccc2)CC2CCC1N2CCO (centres undefined) | – | – | 1.6 µM | 0.7 µM | –
COC(=O)C1C(OC(=O)c2ccccc2)CC2CCC1N2[N+](=O)[O-] (centres undefined) | – | – | 21.2 µM | 7.5 µM | –
COC(=O)CN1C2CCC1C(C(=O)OC)C(OC(=O)c1ccccc1)C2 (centres undefined) | – | – | 1.6 µM | 0.48 µM | –
